The record followed here is patent US20020049299A1, “Synthetic soil-extract materials and medicaments for hemorrhagic fever viruses based thereon” (priority 1997, published 2002).

Format in all cases: cell-based
In assay [1] the test system is Punta Toro A hemorrhagic fever virus type Adames. Briefly: Punta Toro A virus cytoprotection, neutral red dye uptake. The settings on record: Punta Toro A virus in LLC-MK2 cells. On the procedure:
(§1) The second cytoprotection assay protocol, employed to validate the CPE results, was as follows: in the neutral red dye uptake version of the antiviral test protocol described immediately above, the same 96-well microplates were utilized after the CPE had been read. Neutral red dye was then added to the medium: cells not damaged by virus take up a greater amount of dye, which can be read on a computerized micro plate autoreader (the method is described in detail by McManus: Appl. Environ. Microbiol. 1976, 31, 35-38).
(§2) Punta Toro A hemorrhagic fever virus type Adames was obtained from the Center for Disease Control (CDC). The test cell line consisted of adult Rhesus monkey kidney cells (LLC-MK2).
The two protocols used to determine the cytoprotection properties of the humate materials were as described in Example 20.

The test system is the same in assay [2]. Briefly: Punta Toro A virus cytoprotection, inhibition of CPE. The settings on record: LLC-MK2, read-out: CPE EC50.
The test system is the same in assay [3]. Briefly: Punta Toro A virus time-of-addition cytoprotection, NR method. The protocol: as §1, §2
The two protocols used to determine the cytoprotection properties of the humate materials were as described in Example 20, except that drugs were added at specific times to the test wells containing virus.

Assay [4] shares this test system. The assay can be described thus: Punta Toro A virus time-of-addition cytoprotection, CPE method.
The test system of assay [5] is Pichinde hemorrhagic fever virus 4763. The assay can be described thus: microbe, parasite or virus in culture. The settings on record: BSC-1, read-out: CPE EC50.
Assay [6] shares this test system.

In brackets after ≈: the same amount, converted by molar mass. Some results are limits rather than exact numbers.

For orientation: EC50 means the concentration needed to bring the measured effect to its halfway point. `NC(=O)c1ncn([C@@H]2O[C@H](CO)[C@@H](O)[C@H]2O)n1` [Ribavirin]: the results for the “NR EC99” value in assay [1] and in assay [6] were 5 micrograms per milliliter and <1 micrograms per milliliter, respectively. In addition, the EC50 in assay [2] came out at 5 µg/mL (≈ 20.5 µM); in assay [3] (0 h, read-out: EC50, NR method, time of addition 0 hours) it was 3 µg/mL (≈ 12.3 µM); in assay [3] (1 h, read-out: EC50, NR method, time of addition 1 hours), 5 µg/mL (≈ 20.5 µM); in assay [3] (1 h, read-out: EC50, NR method, time of addition −1 hours) it was 6 µg/mL (≈ 24.6 µM); in assay [3] (2 h, read-out: EC50, NR method, time of addition 2 hours), 5 µg/mL (≈ 20.5 µM); in assay [3] (4 h, read-out: EC50, NR method, time of addition 4 hours), 9 µg/mL (≈ 36.9 µM). The EC50 in assay [3] (6 h, read-out: EC50, NR method, time of addition 6 hours) amounted to 8 µg/mL (≈ 32.8 µM); in assay [3] (8 h, read-out: EC50, NR method, time of addition 8 hours), 10 µg/mL (≈ 40.9 µM); in assay [3] (12 h, read-out: EC50, NR method, time of addition 12 hours), 12 µg/mL (≈ 49.1 µM); in assay [3] (24 h, read-out: EC50, NR method, time of addition 24 hours), 35 µg/mL (≈ 143 µM); in assay [4] (0 h, read-out: EC50, CPE method, time of addition 0 hours), 4 µg/mL (≈ 16.4 µM); in assay [4] (1 h, read-out: EC50, CPE method, time of addition 1 hours) it was 4 µg/mL (≈ 16.4 µM). Moreover, the EC50 in assay [4] (1 h, read-out: EC50, CPE method, time of addition −1 hours) was 10 µg/mL (≈ 40.9 µM); in assay [4] (2 h, read-out: EC50, CPE method, time of addition 2 hours), 8 µg/mL (≈ 32.8 µM); in assay [4] (4 h, read-out: EC50, CPE method, time of addition 4 hours), 4 µg/mL (≈ 16.4 µM); in assay [4] (6 h, read-out: EC50, CPE method, time of addition 6 hours), 10 µg/mL (≈ 40.9 µM); in assay [4] (8 h, read-out: EC50, CPE method, time of addition 8 hours), 8 µg/mL (≈ 32.8 µM); in assay [4] (12 h, read-out: EC50, CPE method, time of addition 12 hours), 8 µg/mL (≈ 32.8 µM). In addition, the EC50 was found to be 2 µg/mL (≈ 8.19 µM) in assay [4] (24 h, read-out: EC50, CPE method, time of addition 24 hours) and 0.3 µg/mL (≈ 1.23 µM) in assay [5].
